Laboratory results taken from US6703214B2, “Lipid uptake assays” (Devgen NV, priority 2000, dated 2004).

Assays:
C. elegans = test: Fatty acid uptake assay after overnight compound incubation (activation of FATPs), C4-BODIPY-C9 probe; assay type: in vivo
Method: A fixed amount of probe is then distributed in the microtiter wells. The nematodes are incubated for one hour at room temperature in presence or absence of molecules to be tested. The microtiter plate is rinsed 3 to 4 times, using a standard plate washer (Wellwash, Labsystems, Zellik, Belgium), taking care to perform the aspiration sufficiently distant from the bottom of the well to avoid any loss of nematodes remaining at the bottom. The fluorescence intensity is then measured using a fluorescence microtiter plate reader, using a standard set of fluorescein filters.
Retinoic acid and troglutazones are activators of RXR and PPARγ respectively. C. elegans worms were incubated with these compounds in a range from 100 μM to 0.1 μM for a time period between 1 to 6 hours. Fatty acid uptake was measured using the microtiter plate assay described above.
More particularly, constitutive pharynx pumping worms in late L4 stage or young adults were incubated overnight on agar plates with different concentrations of the retinoic acid or troglutazone (e.g. Rosiglitazon). The compounds were added as solutions in 1 ml M9. After overnight incubation, these worms were further incubated for 1 h with 50 μM C4-BODIPY-C9 in 1 ml M9 on the same agar plates. After incubation the worms were washed three times and dispensed with the worm dispenser, up to 50 worms per well in the multi-well plates. Fluorescence intensity was measured using a microtiter plate reader, as described above.

[1] = test system: wild type (N2) C. elegans; test: Lipid uptake assay with quenched probe (QBFA) in liquid culture after overnight compound incubation on agar plates; assay type: in vivo; conditions: L4 stage worms, about 16 h with various concentrations; 10 μM QBFA, fluorescence read after 2 hours; FIG. 21
Method: Standard 9 cm agar plates were seeded with E. coli (any strain suitable for use in culture of C. elegans may be used). 1 ml volume of rosiglitazone at various concentrations was added to the plates and the plates seeded with L4 stage C. elegans. After an overnight incubation (approximately 16 h), the C. elegans were isolated and washed three times with approximately 15 ml M9 buffer. The worms were then re-suspended into microtiter plates, at 100 worms per well. Quenched probe (QBFA) was added at a final concentration of 10 μM in a total volume of 100 μl. Fluorescence measurements were taken after 2 hours in an automated plate reader. Typical results are illustrated in FIG. 21.

Compound	increase in fatty acid uptake (C. elegans; constitutive pharynx pumping worms, late L4/young adults, overnight incubation with compound on agar plates, 1 h with 50 μM C4-BODIPY-C9, FIG. 8) [fold]	increase in fatty acid uptake, also observed at low concentration (C. elegans; only 3 μM of Rosiglitazon applied, otherwise as E1) [fold]	effect on lipid uptake (in words) [1]	effect on fatty acid uptake (in words) (C. elegans; increased expression of FATP by applying the compound)
CN(CCOc1ccc(CC2SC(=O)NC2=O)cc1)c1ccccn1 (stereo not shown) [Rosiglitazon]	5	5	have an effect on lipid uptake	–
troglutazone	–	–	–	clearly enhanced fatty acid uptake
